Our source for the activity and IC50 values is patent US20260132132A1, “3A,4,5,6-TETRAHYDRO-1 H-PYRAZOLO[3,4-C]PYRIDIN-7(7AH)-ONE DERIVATIVES AS FACTOR XIIA INHIBITORS” (KALVISTA PHARMACEUTICALS LIMITED, priority 2022, published 2026).

What all share (type): biochemical
For test [1], the target named is Thrombin (Homo sapiens, UniProt P00734). In words: Related protease inhibition: Thrombin, fluorogenic substrate. The note with it: fluorogenic substrate at Km, 25° C.; H1-H3 = % activity at 40 μM; read-out: IC50 (human thrombin) nM. How it is done:
(§1) Human serine protease enzyme Plasma Kallikrein, KLK1, FXa, Plasmin, Thrombin and Trypsin were assayed for enzymatic activity using an appropriate fluorogenic substrate at Km concentration, FXIa at fixed substrate concentration of 100 μM and various concentrations of the test compound.

The target of test [2] is FXa (Homo sapiens, UniProt P00742). In words: Related protease inhibition: FXa, fluorogenic substrate. The note with it: fluorogenic substrate at Km, 25° C.; H1-H3 = % activity at 40 μM; read-out: IC50 (human FXa) nM. The method, then: as §1
The target of test [3] is T1, Human Factor XIIa (hFXIIa) (Homo sapiens, UniProt P00748).
T1 construct: purchased Enzyme Research Laboratories
T1 sequence (P00748 373-615 limits assumed): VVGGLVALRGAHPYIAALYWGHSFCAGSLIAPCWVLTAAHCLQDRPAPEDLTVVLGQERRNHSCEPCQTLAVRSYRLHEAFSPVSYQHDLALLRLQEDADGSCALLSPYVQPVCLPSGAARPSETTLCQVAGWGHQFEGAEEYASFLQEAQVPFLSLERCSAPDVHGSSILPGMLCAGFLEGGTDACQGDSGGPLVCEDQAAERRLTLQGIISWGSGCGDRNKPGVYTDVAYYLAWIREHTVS
T1 sequence (P00748 20-372 partner limits assumed): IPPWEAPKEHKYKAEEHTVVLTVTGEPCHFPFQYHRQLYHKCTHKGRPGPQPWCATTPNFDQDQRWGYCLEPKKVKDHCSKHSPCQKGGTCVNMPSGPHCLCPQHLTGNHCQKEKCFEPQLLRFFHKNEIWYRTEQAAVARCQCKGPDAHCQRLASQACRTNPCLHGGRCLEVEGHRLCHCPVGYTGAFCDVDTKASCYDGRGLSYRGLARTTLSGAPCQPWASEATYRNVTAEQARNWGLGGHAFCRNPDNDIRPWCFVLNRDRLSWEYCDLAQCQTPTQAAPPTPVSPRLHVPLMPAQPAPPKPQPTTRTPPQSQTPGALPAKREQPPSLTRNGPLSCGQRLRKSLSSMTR
In words: Determination of Human Factor XIIa (hFXIIa) inhibition, fluorogenic substrate IC50 assay. The note with it: fluorogenic substrate H-DPro-Phe-Arg-AFC at Km, 25° C., read-out: Human FXIIa IC50. The method, then: Determination of Human Factor XIIa (hFXIIa) inhibition
The Km for the cleavage of the substrate by hFXIIa was determined by standard transformation of the Michaelis-Menten equation, with subsequent inhibition assays performed at substrate Km concentration.

Structures are written as SMILES. pIC50: −log10 of the molar value.

Chain of FXa (P00742 235-488 limits assumed): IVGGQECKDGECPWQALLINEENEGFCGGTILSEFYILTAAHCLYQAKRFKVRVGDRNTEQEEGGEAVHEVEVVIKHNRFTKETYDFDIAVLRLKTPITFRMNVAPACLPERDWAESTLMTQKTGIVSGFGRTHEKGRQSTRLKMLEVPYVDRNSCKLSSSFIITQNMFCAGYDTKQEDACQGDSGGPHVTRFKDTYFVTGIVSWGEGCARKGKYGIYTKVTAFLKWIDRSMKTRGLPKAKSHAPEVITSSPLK
Chain of FXa (P00742 41-179 partner limits assumed): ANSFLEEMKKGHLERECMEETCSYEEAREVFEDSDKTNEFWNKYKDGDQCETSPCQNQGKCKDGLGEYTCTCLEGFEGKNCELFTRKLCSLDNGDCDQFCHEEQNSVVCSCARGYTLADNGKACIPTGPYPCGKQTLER

Broadly, the pIC50 is −log10 of the IC50, conventionally taken in molar units. With `CN1CCc2ccc(N3CCc4c(C(=O)NCC5(O)CC5)nn(-c5cccc(Cl)c5)c4C3=O)cc2C1=O` [Example 1421, 1-(3-chlorophenyl)-N-((1-hydroxycyclopropyl)methyl)-6-(2-methyl-1-oxo-1,2,3,4-tetrahydroisoquinolin-7-yl)-7-oxo-4,5,6,7-tetrahydro-1H-pyrazolo[3,4-c]pyridine-3-carboxamide], the activity at 40 µM in test [1] and in test [2] was above 80% each time. Besides, in test [3], the pIC50 was 6.00 to 6.52.
With `CN1CCc2ccc(N3CCc4c(C(=O)N[C@@H]5COC[C@H]5O)nn(-c5cccc(Cl)c5)c4C3=O)cc2C1=O` [Example 1411, 1-(3-chlorophenyl)-N-((3R,4S)-4-hydroxytetrahydrofuran-3-yl)-6-(2-methyl-1-oxo-1,2,3,4-tetrahydroisoquinolin-7-yl)-7-oxo-4,5,6,7-tetrahydro-1H-pyrazolo[3,4-c]pyridine-3-carboxamide], the activity at 40 µM in test [1] and in test [2] was above 80% each time. Also, the pIC50 in test [3] was 6.00 to 6.52.
For the compound `CN1CCc2ccc(N3CCc4c(C(=O)NCC(=O)O)nn(-c5cc(Cl)cc(CN)c5)c4C3=O)cc2C1=O` [Example 2056, (1-(3-(aminomethyl)-5-chlorophenyl)-6-(2-methyl-1-oxo-1,2,3,4-tetrahydroisoquinolin-7-yl)-7-oxo-4,5,6,7-tetrahydro-1H-pyrazolo[3,4-c]pyridine-3-carbonyl)glycine], the activity at 40 µM is above 80% in test [1] and 20 to 80% in test [2]. Also, in test [3], the pIC50 is 7.00 to 8.00.
With `Cc1ccc(CNC(=O)c2nn(-c3cccc(Cl)c3)c3c2CCN(c2ccc4c(c2)C(=O)N(CCO)CC4)C3=O)cn1` [Example 1414, 1-(3-chlorophenyl)-6-(2-(2-hydroxyethyl)-1-oxo-1,2,3,4-tetrahydroisoquinolin-7-yl)-N-((6-methylpyridin-3-yl)methyl)-7-oxo-4,5,6,7-tetrahydro-1H-pyrazolo[3,4-c]pyridine-3-carboxamide], the activity at 40 µM in test [1] and in test [2] was 20 to 80% each time. For the same compound, the pIC50 in test [3] was 6.52 to 7.00.
As to `CN1CCc2ccc(N3CCc4c(C(=O)N[C@@H]5COC[C@@H]5O)nn(-c5cccc(Cl)c5)c4C3=O)cc2C1=O` [Example 1412, 1-(3-chlorophenyl)-N-((3R,4R)-4-hydroxytetrahydrofuran-3-yl)-6-(2-methyl-1-oxo-1,2,3,4-tetrahydroisoquinolin-7-yl)-7-oxo-4,5,6,7-tetrahydro-1H-pyrazolo[3,4-c]pyridine-3-carboxamide], the activity at 40 µM in test [1] and in test [2] was 20 to 80% throughout. For the same compound, the pIC50 in test [3] is 6.00 to 6.52.
On to `CN1CCOc2ccc(N3CCc4c(C(=O)NC56CC(O)(C5)C6)nn(-c5cccc(Cl)c5F)c4C3=O)cc2C1=O` [Example 2050, 1-(3-chloro-2-fluorophenyl)-N-(3-hydroxybicyclo[1.1.1]pentan-1-yl)-6-(4-methyl-5-oxo-2,3,4,5-tetrahydrobenzo[f][1,4]oxazepin-7-yl)-7-oxo-4,5,6,7-tetrahydro-1H-pyrazolo[3,4-c]pyridine-3-carboxamide], for which the activity at 40 µM in test [1] and in test [2] was 20 to 80% throughout. In test [3], the pIC50 is 7.00 to 8.00.
Take `CCNC(=O)c1nn(-c2cccc(Cl)c2)c2c1CCN(c1cccc(N3CCN(C)CC3)c1)C2=O` [Example 1423, 1-(3-Chlorophenyl)-N-ethyl-6-(3-(4-methylpiperazin-1-yl)phenyl)-7-oxo-4,5,6,7-tetrahydro-1H-pyrazolo[3,4-c]pyridine-3-carboxamide]: the activity at 40 µM in test [1] and in test [2] was 20 to 80% each time. For the same compound, the pIC50 in test [3] was 5.52 to 6.00.
With `COCCNC(=O)c1nn(-c2cccc(Cl)c2)c2c1CCN(c1ccc3c(c1)C(=O)N(C)CC3)C2=O` [Example 1410, 1-(3-chlorophenyl)-N-(2-methoxyethyl)-6-(2-methyl-1-oxo-1,2,3,4-tetrahydroisoquinolin-7-yl)-7-oxo-4,5,6,7-tetrahydro-1H-pyrazolo[3,4-c]pyridine-3-carboxamide], the activity at 40 µM in test [1] was below 20%; in test [2] it was 20 to 80%. The pIC50 in test [3] was 6.00 to 6.52.
The corresponding values for `CCNC(=O)c1nn(-c2cccc(C#N)c2C)c2c1CCN(c1ccc3c(c1)C(=O)N(C)CC3)C2=O` [Example 2042, 1-(3-cyano-2-methylphenyl)-N-ethyl-6-(2-methyl-1-oxo-1,2,3,4-tetrahydroisoquinolin-7-yl)-7-oxo-4,5,6,7-tetrahydro-1H-pyrazolo[3,4-c]pyridine-3-carboxamide] are 20 to 80%, above 80% and 4.40 to 5.00.
As for `CN1CCc2ccc(N3CCc4c(C(=O)NCC5(N)CC5)nn(-c5cccc(Cl)c5)c4C3=O)cc2C1=O` [Example 1427, N-((1-aminocyclopropyl)methyl)-1-(3-chlorophenyl)-6-(2-methyl-1-oxo-1,2,3,4-tetrahydroisoquinolin-7-yl)-7-oxo-4,5,6,7-tetrahydro-1H-pyrazolo[3,4-c]pyridine-3-carboxamide], the activity at 40 µM in test [1] and in test [2] was above 80% each time. Further, in test [3], the pIC50 is 6.00 to 6.52.
For `CCNC(=O)c1nn(-c2cccc(Cl)c2)c2c1CCN(c1ccc3c(c1)NCCO3)C2=O` [Example 1422, 1-(3-chlorophenyl)-6-(3,4-dihydro-2H-benzo[b][1,4]oxazin-6-yl)-N-ethyl-7-oxo-4,5,6,7-tetrahydro-1H-pyrazolo[3,4-c]pyridine-3-carboxamide], the activity at 40 µM in test [1] and in test [2] was 20 to 80% in each case. Besides, in test [3], the pIC50 was 4.40 to 5.00.
On to `CCNC(=O)c1nn(-c2cccc(Cl)c2)c2c1CCN(c1cccc(N3CCN(C)CC3=O)c1)C2=O` [Example 1420, 1-(3-chlorophenyl)-N-ethyl-6-(3-(4-methyl-2-oxopiperazin-1-yl)phenyl)-7-oxo-4,5,6,7-tetrahydro-1H-pyrazolo[3,4-c]pyridine-3-carboxamide], for which the activity at 40 µM in test [1] and in test [2] was above 80% each time. Besides, the negative-log IC50 (pIC50) in test [3] was 5.00 to 5.52.
Regarding `CCNC(=O)c1nn(-c2cccc(Cl)c2)c2c1CCN(c1cccc(N3CCC4(CC4)C3)c1)C2=O` [Example 1430, 6-(3-(5-azaspiro[2.4]heptan-5-yl)phenyl)-1-(3-chlorophenyl)-N-ethyl-7-oxo-4,5,6,7-tetrahydro-1H-pyrazolo[3,4-c]pyridine-3-carboxamide], the activity at 40 µM in test [1] and in test [2] was above 80% each time. For the same compound, in test [3], the negative-log IC50 (pIC50) was 5.00 to 5.52.
On to `CCNC(=O)c1nn(-c2cccc(Cl)c2)c2c1CCN(c1cccc(N3C(=O)C[C@H]4CCC[C@H]43)c1)C2=O` [Example 1413, 1-(3-chlorophenyl)-N-ethyl-7-oxo-6-(3-((3aR,6aR)-2-oxohexahydrocyclopenta[b]pyrrol-1(2H)-yl)phenyl)-4,5,6,7-tetrahydro-1H-pyrazolo[3,4-c]pyridine-3-carboxamide], for which the activity at 40 µM in test [1] is 20 to 80%; in test [2], above 80%. The pIC50 in test [3] was 4.40 to 5.00.
The corresponding values for `CCNC(=O)c1nn(-c2cccc(Cl)c2)c2c1CCN(c1cccc(N3CCN(C(C)C)C3=O)c1)C2=O` [Example 1409, 1-(3-chlorophenyl)-N-ethyl-6-(3-(3-isopropyl-2-oxoimidazolidin-1-yl)phenyl)-7-oxo-4,5,6,7-tetrahydro-1H-pyrazolo[3,4-c]pyridine-3-carboxamide] are above 80%, above 80% and 5.00 to 5.52.
The corresponding values for `CCNC(=O)c1nn(-c2cccc(Cl)c2)c2c1CCN(c1cccc(N3CCN(C)C(=O)C3)c1)C2=O` [Example 1432, 1-(3-chlorophenyl)-N-ethyl-6-(3-(4-methyl-3-oxopiperazin-1-yl)phenyl)-7-oxo-4,5,6,7-tetrahydro-1H-pyrazolo[3,4-c]pyridine-3-carboxamide] are below 20%, 20 to 80% and 5.52 to 6.00.
For `CCNC(=O)c1nn(-c2cccc(Cl)c2)c2c1CCN(c1cc3c(cc1F)OCCN(C)C3=O)C2=O` [Example 1435, 1-(3-chlorophenyl)-N-ethyl-6-(8-fluoro-4-methyl-5-oxo-2,3,4,5-tetrahydrobenzo[f][1,4]oxazepin-7-yl)-7-oxo-4,5,6,7-tetrahydro-1H-pyrazolo[3,4-c]pyridine-3-carboxamide], the activity at 40 µM in test [1] and in test [2] was above 80% in each case. The pIC50 in test [3] was 6.52 to 7.00.
